ChEMBL document CHEMBL1201862, “PubChem BioAssay data set” (2004)
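Five compound concentrations were applied to cells in 96-well plates for 48 hours; endpoints were derived by simple linear interpolation of the resulting dose-response curve. At the GI50, growth is halved.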 Activity calls are given as the source filed them. No stated cut-off is given here; in the data, active = GI50 up to about 1.1 µM and inactive = higher.

Columns and labels:
Assay in all cases: inhibition of tumour cell growth, NCI panel, 48 h
[1] = tested on: SK-MEL-5
[2] = tested on: CAKI-1
[3] = tested on: SNB-75
[4] = tested on: SF-268
[5] = tested on: NCI-H226
[6] = tested on: MDA-MB-435
[7] = tested on: HT-29
[8] = tested on: EKVX
[9] = tested on: K562
[10] = tested on: HCT-15
[11] = tested on: T47D
[12] = tested on: HOP-62
[13] = tested on: COLO 205
[14] = tested on: UO-31
[15] = tested on: HCT-116
[16] = tested on: NCI-H522
[17] = tested on: A498
[18] = tested on: RXF 393

SMILES | GI50 [1] | GI50 [2] | GI50 [3] | GI50 [4] | GI50 [5] | GI50 [6] | GI50 [7] | GI50 [8] | GI50 [9] | GI50 [10] | GI50 [11] | GI50 [12] | GI50 [13] | GI50 [14] | GI50 [15] | GI50 [16] | GI50 [17] | GI50 [18]
CN1C(C)(C)CC(=O)C(Br)C1(C)C (stereo unspecified) | > 100 µM (inactive) | > 100 µM (inactive) | 61.8 µM (inactive) | > 100 µM (inactive) | > 100 µM (inactive) | > 100 µM (inactive) | > 100 µM (inactive) | > 100 µM (inactive) | > 100 µM (inactive) | > 100 µM | > 100 µM (inactive) | > 100 µM (inactive) | > 100 µM (inactive) | > 100 µM (inactive) | > 10 µM (inactive) | > 100 µM (inactive) |  | 
c1cc2c(s1)-c1sccc1C21OCCO1 | 53.5 µM (inactive) | > 100 µM (inactive) |  | 18.7 µM (inactive) | > 100 µM (inactive) | > 100 µM (inactive) | 97.7 µM (inactive) | > 100 µM (inactive) | > 100 µM (inactive) | 76.2 µM | 17.3 µM (inactive) | > 100 µM (inactive) | > 100 µM (inactive) | > 100 µM (inactive) | 58.9 µM (inactive) | 82.8 µM (inactive) |  | 
Cc1nc2ccccc2n1Cc1nnc2n1N=C(c1ccccc1)CS2 | 29.2 µM (inactive) | 37.2 µM (inactive) | 18 µM (inactive) | 40.9 µM (inactive) | > 100 µM (inactive) | 32.7 µM (inactive) | 30.5 µM (inactive) | 34.3 µM (inactive) |  | 54.8 µM | 10.6 µM (inactive) | 47.3 µM (inactive) | 30.1 µM (inactive) | 38.2 µM (inactive) | 27.7 µM (inactive) | 22.1 µM (inactive) | 43.8 µM (inactive) | 
CCCCC(C)/C=C/C(O)=C1\C(=O)O/C(=C\C(=O)O)C1=O (stereo unspecified) | > 100 µM (inactive) |  | > 100 µM (inactive) |  | > 100 µM (inactive) |  | > 100 µM (inactive) | > 100 µM (inactive) | > 100 µM (inactive) | > 100 µM |  | > 100 µM (inactive) | > 100 µM (inactive) | > 100 µM (inactive) | > 100 µM (inactive) |  | > 100 µM (inactive) | 
COc1ccc(C2C=C(c3ccc(C)cc3)N(c3ccc(OC)cc3[N+](=O)[O-])C3C(=O)OC(=O)C23)c(OC)c1 (stereo unspecified) | 64.6 µM (inactive) | 37.3 µM (inactive) | 20.2 µM (inactive) | 18.5 µM (inactive) | 31.5 µM (inactive) | 44.3 µM (inactive) | 24.3 µM (inactive) | 28.2 µM (inactive) | 37.8 µM (inactive) | 33.5 µM |  | 96.6 µM (inactive) | 43.1 µM (inactive) |  | 28.2 µM (inactive) | 10.4 µM (inactive) | 67 µM (inactive) | 
Cc1cc(C)n(C(=O)C(C)Sc2nnc(SC(C)C(=O)n3nc(C)cc3C)s2)n1 (stereo unspecified) | > 100 µM (inactive) | > 100 µM (inactive) | > 100 µM (inactive) | > 100 µM (inactive) | > 100 µM (inactive) | > 100 µM (inactive) | > 100 µM (inactive) | > 100 µM (inactive) | > 100 µM (inactive) | > 100 µM |  | > 100 µM (inactive) | > 100 µM (inactive) | > 100 µM (inactive) | > 100 µM (inactive) |  | > 100 µM (inactive) | > 100 µM (inactive)
C=C1C(=O)O[C@H]2C/C(C=O)=C\[C@H]3O[C@H]3/C(COC(=O)C(C)C)=C/CC12 (stereo partly specified) | 9.42 µM (inactive) | 2.65 µM (inactive) |  |  | 21.4 µM (inactive) | 4.25 µM (inactive) | 3.07 µM (inactive) | 16.3 µM (inactive) | 2.9 µM (inactive) | 3.3 µM | 3.54 µM (inactive) | 13.6 µM (inactive) | 1.93 µM (inactive) | 5.58 µM (inactive) | 3.05 µM (inactive) | 3.39 µM (inactive) |  | 3.49 µM (inactive)
COc1c(C(=O)/C(=N/Nc2cccc(Cl)c2)C(C)=O)c(O)c(OC)c2occc12 | > 100 µM (inactive) | > 100 µM (inactive) | 13 µM (inactive) | 87.3 µM (inactive) | > 100 µM (inactive) | > 100 µM (inactive) | 95.1 µM (inactive) | 78.7 µM (inactive) | > 100 µM (inactive) | > 100 µM | 50.8 µM (inactive) | > 100 µM (inactive) | > 100 µM (inactive) | 37.2 µM (inactive) | > 100 µM (inactive) | > 100 µM (inactive) |  | 34.6 µM (inactive)
CC(=O)O[C@H]1CC[C@H]2[C@@H]3CCC4=C/C(=N/OCCN(C)C)CC[C@]4(C)[C@H]3CC[C@]12C | 4.58 µM (inactive) | 14 µM (inactive) | 6.68 µM (inactive) | 13.1 µM (inactive) | 3.8 µM (inactive) | 2.19 µM (inactive) | 2.06 µM (inactive) | 14.4 µM (inactive) | 2.11 µM (inactive) | 2.22 µM | 5.81 µM (inactive) | 13.4 µM (inactive) | 2.27 µM (inactive) | 14.9 µM (inactive) | 4.25 µM (inactive) | 6.87 µM (inactive) |  | 12 µM (inactive)
CC(C)CC(C(N)=O)C(=O)NC(Cc1ccccc1)NC(=O)CNC(=O)C(C)NC(=O)C(N)Cc1ccc(O)cc1 (stereo unspecified) | > 100 µM (inactive) | > 100 µM (inactive) | > 100 µM (inactive) | > 100 µM (inactive) | > 100 µM (inactive) | > 100 µM (inactive) | > 100 µM (inactive) | > 100 µM (inactive) | > 100 µM (inactive) | > 100 µM | > 100 µM (inactive) | > 100 µM (inactive) | > 100 µM (inactive) | > 100 µM (inactive) | > 100 µM (inactive) | > 100 µM (inactive) |  | > 100 µM (inactive)
O=C1CCc2ccc3c(c21)CC1(Cc2ccccc2C1)C3 | 3.38 µM (inactive) | 5.24 µM (inactive) | 14.4 µM (inactive) | 12.7 µM (inactive) | 19.1 µM (inactive) | 5.98 µM (inactive) | 3.71 µM (inactive) |  |  | 4.67 µM | 8.55 µM (inactive) | 6.37 µM (inactive) | 16.2 µM (inactive) | 3.45 µM (inactive) | 3.98 µM (inactive) | 10.2 µM (inactive) |  | 
CCOC(=O)C1C(=O)C=C(c2cc(C)ccc2O)CC1c1cccc(Cl)c1 (stereo unspecified) | 19.2 µM (inactive) | 30.7 µM (inactive) |  | 22.3 µM (inactive) | 24.5 µM (inactive) | 2.78 µM (inactive) | 32 µM (inactive) | 30.1 µM (inactive) | 12.9 µM (inactive) | 3.13 µM | 36.1 µM (inactive) | 40.2 µM (inactive) | 18.5 µM (inactive) | 19.6 µM (inactive) | 34 µM (inactive) | 12.4 µM (inactive) |  | 19.3 µM (inactive)
CCCCC[C@H]1CCCCCCCCCC(=O)OC2C(O[C@@H]3OC(C)[C@H](OC(=O)[C@@H](C)CC)C(O[C@@H]4OC(C)[C@H](O)C(O)[C@@H]4O)[C@@H]3OC(=O)[C@H](C)CC)[C@H](OC3C(O)[C@@H](O)C(C)O[C@H]3O1)OC(CO)[C@H]2O (stereo partly specified) | 17.1 µM (inactive) | 17.3 µM (inactive) |  | 16.3 µM (inactive) |  |  | 16.7 µM (inactive) | 19.2 µM (inactive) | 18.8 µM (inactive) | 16.7 µM | 17 µM (inactive) | 18.2 µM (inactive) | 11.9 µM (inactive) | 16.1 µM (inactive) | 16.1 µM (inactive) | 17.7 µM (inactive) |  | 
C=C1C(=O)O[C@H]2C1C[C@H](O)[C@@]1(C)OC1CC[C@@]1(C)O[C@H]21 (stereo partly specified) | 20.4 µM (inactive) | 17.7 µM (inactive) | 80.4 µM (inactive) | 43.2 µM (inactive) |  | 23.5 µM (inactive) | 32.5 µM (inactive) | 18.2 µM (inactive) | 4.28 µM (inactive) | 18.7 µM | 19.3 µM (inactive) | 27.6 µM (inactive) | 4.88 µM (inactive) | 17.1 µM (inactive) | 16.6 µM (inactive) | 2.79 µM (inactive) |  | 22.5 µM (inactive)
N#C/C(=C\c1cc(F)cc(F)c1)c1ccccn1 | 13.3 µM (inactive) | 39.5 µM (inactive) | 16.1 µM (inactive) | 19.4 µM (inactive) | 17.5 µM (inactive) |  | 34.4 µM (inactive) | 13 µM (inactive) | 15.5 µM (inactive) | 15.4 µM |  | > 10 µM (inactive) | > 10 µM (inactive) | 34.7 µM (inactive) | 27.9 µM (inactive) | 24.2 µM (inactive) |  | 26.7 µM (inactive)
NS(=O)(=O)c1ccc(-n2c(-c3cccs3)nc3ccc(I)cc3c2=O)cc1 | 23.7 µM (inactive) | 19.4 µM (inactive) | 37.7 µM (inactive) | 28.2 µM (inactive) | 27.4 µM (inactive) | 18.9 µM (inactive) | 31.7 µM (inactive) | 25.1 µM (inactive) |  | 20.9 µM |  | 30.4 µM (inactive) | 19.7 µM (inactive) | 20 µM (inactive) | 17.3 µM (inactive) | 19.7 µM (inactive) |  | 28.2 µM (inactive)
COc1ccc(-c2oc3cc(OC(C)=O)cc(OC(C)=O)c3c(=O)c2OC)cc1 | 12.4 µM (inactive) | 4.04 µM (inactive) |  | 15.4 µM (inactive) |  | 10.4 µM (inactive) | 16.7 µM (inactive) | 13.9 µM (inactive) | 9.77 µM (inactive) | 20.8 µM | 19.7 µM (inactive) | 18.1 µM (inactive) | 15.9 µM (inactive) | 19.6 µM (inactive) | 21 µM (inactive) | 2.12 µM (inactive) | 21.7 µM (inactive) | 
Nc1ccccc1NC(=O)c1ccc(CNC(=O)OCc2cccnc2)cc1 [ENTINOSTAT] | 0.624 µM (active) |  | 4.89 µM (inactive) | 2.43 µM (inactive) | 0.501 µM (active) |  | 0.524 µM (active) | 1.72 µM (inactive) | 0.627 µM (active) | 3.56 µM | 0.708 µM (active) | 2 µM (inactive) | 1.17 µM (inactive) | 0.759 µM (active) | 0.415 µM (active) | 0.908 µM (active) | 0.429 µM (active) | 2.16 µM (inactive)
